Reference: patent US20260317332A1, “BICYCLIC HETEROCYCLE COMPOUNDS FOR THE TREATMENT OF CANCER” (Hoffmann-La Roche Inc., priority 2023, published 2026)

Key:
CD73 [1] = target: T1, CD73 (Homo sapiens, UniProt P21589); experiment: Human CD73 Biochemical Assay; settings: 0.05 nM recombinant CD73; AMP 5.56 μM final; 10 min at room temperature; LC/MS adenosine readout; read-out: Enzymatic IC50 against human CD73
T1 sequence (P21589 27-574): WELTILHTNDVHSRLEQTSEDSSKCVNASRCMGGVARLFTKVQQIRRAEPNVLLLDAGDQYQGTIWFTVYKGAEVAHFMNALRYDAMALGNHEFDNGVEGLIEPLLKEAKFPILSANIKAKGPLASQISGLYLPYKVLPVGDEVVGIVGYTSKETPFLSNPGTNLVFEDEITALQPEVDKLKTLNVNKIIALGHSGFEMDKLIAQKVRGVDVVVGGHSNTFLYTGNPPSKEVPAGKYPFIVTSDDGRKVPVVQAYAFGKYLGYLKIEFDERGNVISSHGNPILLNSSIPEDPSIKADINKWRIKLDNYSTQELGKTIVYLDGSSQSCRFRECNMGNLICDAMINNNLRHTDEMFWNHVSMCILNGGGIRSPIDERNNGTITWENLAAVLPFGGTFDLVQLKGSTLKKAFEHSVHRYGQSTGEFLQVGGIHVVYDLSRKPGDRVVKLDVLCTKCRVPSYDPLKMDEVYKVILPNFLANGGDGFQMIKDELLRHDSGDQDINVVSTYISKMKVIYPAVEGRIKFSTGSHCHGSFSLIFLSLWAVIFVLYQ
Protocol: The purpose of this assay is to identify and characterize inhibitors of human CD73 enzymatic activity. Compound serial dilution (1:3) was prepared with Echo 555 liquid handler (Labcyte) into the corresponding wells of a 384-well plate. 10 μL of enzyme working solution (containing 0.05 nM recombinant CD73 protein, 10 mM Tris pH 7.5, 100 mM NaCl, 0.01% BSA, 0.2 mM Octyl glucoside and 1 mM NaH2PO4) was added to the assay plate and incubated with compounds for 15 minutes at room temperature. After adding 15 μL of AMP working solution (Containing 10 mM Tris pH 7.5, 100 mM NaCl, 0.01% BSA, 0.2 mM Octyl glucoside, with 5.56 μM of AMP final concentration) and incubate for 10 min at room temperature. Stop the reaction by adding 75 μL of stop solution (5% TCA in H2O containing 250 nM 13C5-adenosine) to each well for 10 min incubation. After centrifugation, 75 μL of the mixture was transferred to a new 384-well plate for LC/MS analysis.
Samples from the 384-well plates, were loaded onto an autosampler deck, then injected with ADDA-LC-MS/MS. The aqueous mobile phase is 0.1% formic acid in water. The organic mobile phase is 0.1% formic acid in acetonitrile. Flow rate is maintained at 0.8 mL/minute using Shimadzu pumps. The column is ACE 5 Phenyl, 50×2.1 mm. The analysis was performed on a SCIEX triple quadrupole mass spectrometer operating in positive ion mode. The effluent from the HPLC column was directly introduced into the electrospray ionization (ESI). Multiple reaction monitoring (MRM) is used to determine analyte and internal standard (IS) responses. The MRM for adenosine is 268.1/136.1, for 13C5-Adenosine (IS) is 273.2/136.2. The data is calculated using the peak area ratio (PAR) semi-quantitative method.

CD73 [2] = target: T1, CD73; experiment: CD73 Cellular Assay; format: cell-based; parameters: 40 μL of MDA-MB-231 cells (ATCC, HTB-26, breast cancer); host or cells: MDA-MB-231; settings: MDA-MB-231 cells; 200 μM AMP working solution; 45 min at 37° C.; malachite readout; read-out: Cellular IC50 against CD73
Protocol: Compound serial dilution (1:3) was prepared with Echo 555 liquid handler (Labcyte) into the corresponding wells of a 384-well plate. 40 μL of MDA-MB-231 cells (ATCC, HTB-26, breast cancer, final concentration at 20,000 cells/mL) suspended in assay buffer (20 mM HEPES pH 7.4, 137 mM NaCl, 5.4 mM KCl, 1.3 mM CaCl2, 4.2 mM NaHCO3, 1 mg/mL glucose) were added into the corresponding wells of the plate. After incubating with compounds for 30 minutes, 40 μL of AMP working solution (200 μM AMP in assay buffer) was added into each well in the assay plate. The assay plate was then incubated in a 5% CO2 incubator (Thermo Fisher Scientific) at 37° C. for 45 min. After the reaction was completed, 50 μL of the supernatants was collected and transferred into a new 384 well plate. 10 μL of Malachite A was added to each well in the assay plate and incubated for 10 minutes. 10 μL of Malachite B was then added to each corresponding well of the plate and incubated for 30 minutes. Finally the absorbance value was read on the Envision plate reader at […]. Calculation percentage inhibition by using equation {% inhibition=100×[1−(X−MIN)/(MAX−MIN)]} where X equals to the well signal, Max equals signal of neutral control and MIN equals signal of inhibitor control.

Compound	IC50 (CD73 [1])	IC50 (CD73 [2])
Cn1nc(O[C@H](c2ccc(F)c(OCC(F)(F)F)c2)C(F)F)c2cc(-c3c[nH]c(=O)[nH]c3=O)nnc21 [Example 3, 5-[3-[(1R)-2,2-difluoro-1-[4-fluoro-3-(2,2,2-trifluoroethoxy)phenyl]ethoxy]-1-methyl-pyrazolo[3,4-c]pyridazin-5-yl]-1H-pyrimidine-2,4-dione]	0.17 nM	0.91 nM
Cn1nc(O[C@H](c2ccnc(N3CCC(F)(F)CC3)c2)C(F)F)c2cc(-c3c[nH]c(=O)[nH]c3=O)nnc21 [Example 31, 5-[3-[(1R)-1-[2-(4,4-difluoro-1-piperidyl)-4-pyridyl]-2,2-difluoro-ethoxy]-1-methyl-pyrazolo[3,4-c]pyridazin-5-yl]-1H-pyrimidine-2,4-dione]	0.05 nM	0.55 nM
CCOc1ccnc([C@@H](Oc2nn(C)c3nnc(-c4c[nH]c(=O)[nH]c4=O)cc23)C(F)F)c1 [Example 20, 5-[3-[(1R)-1-(4-ethoxy-2-pyridyl)-2,2-difluoro-ethoxy]-1-methyl-pyrazolo[3,4-c]pyridazin-5-yl]-1H-pyrimidine-2,4-dione]	0.06 nM	0.49 nM
C[C@H](Oc1nn(C)c2nnc(-c3c[nH]c(=O)[nH]c3=O)cc12)c1cc(OCC(F)(F)F)ncn1 (single isomer, unassigned) [Example 14A]	0.09 nM	1.04 nM
CCOc1cc([C@@H](Oc2nn(C)c3nnc(-c4c[nH]c(=O)[nH]c4=O)cc23)C(F)F)ccn1 [Example 29, 5-[3-[(1R)-1-(2-ethoxy-4-pyridyl)-2,2-difluoro-ethoxy]-1-methyl-pyrazolo[3,4-c]pyridazin-5-yl]-1H-pyrimidine-2,4-dione]	–	0.51 nM
Cn1nc(O[C@H](c2cc(OCC(F)(F)F)c(F)cn2)C(F)F)c2cc(-c3c[nH]c(=O)[nH]c3=O)nnc21 [Example 9A, 5-[3-[(1R)-2,2-difluoro-1-[5-fluoro-4-(2,2,2-trifluoroethoxy)-2-pyridyl]ethoxy]-1-methyl-pyrazolo[3,4-c]pyridazin-5-yl]-1H-pyrimidine-2,4-dione]	0.11 nM	0.73 nM
[2H]C([2H])([2H])C([2H])([2H])Oc1cc([C@@H](Oc2nn(C)c3nnc(-c4c[nH]c(=O)[nH]c4=O)cc23)C(F)F)ccn1 [Example 30, 5-[3-[(1R)-2,2-difluoro-1-[2-(1,1,2,2,2-pentadeuterioethoxy)-4-pyridyl]ethoxy]-1-methyl-pyrazolo[3,4-c]pyridazin-5-yl]-1H-pyrimidine-2,4-dione]	0.05 nM	0.6 nM
Cn1nc(O[C@H](c2cccc(OCC(F)(F)F)c2)C(F)F)c2cc(-c3c[nH]c(=O)[nH]c3=O)nnc21 [Example 1, 5-[3-[(1R)-2,2-difluoro-1-[3-(2,2,2-trifluoroethoxy)phenyl]ethoxy]-1-methyl-pyrazolo[3,4-c]pyridazin-5-yl]-1H-pyrimidine-2,4-dione]	0.08 nM	0.7 nM
[2H]C([2H])([2H])C([2H])([2H])Oc1cc([C@@H](Oc2nn(C)c3nnc(-c4c[nH]c(=O)[nH]c4=O)cc23)C(F)F)ncn1 [Example 39A, 5-[3-[(1R)-2,2-difluoro-1-[6-(1,1,2,2,2-pentadeuterioethoxy)pyrimidin-4-yl]ethoxy]-1-methyl-pyrazolo[3,4-c]pyridazin-5-yl]-1H-pyrimidine-2,4-dione]	–	0.65 nM
CC(Oc1ccnc([C@@H](Oc2nn(C)c3nnc(-c4c[nH]c(=O)[nH]c4=O)cc23)C(F)F)c1)C(F)(F)F (stereo partly drawn) [Example 17, 5-[1-methyl-3-[(1R)-2,2-difluoro-1-[4-(2,2,2-trifluoro-1-methyl-ethoxy)-2-pyridyl]ethoxy]pyrazolo[3,4-c]pyridazin-5-yl]-1H-pyrimidine-2,4-dione]	–	0.39 nM
COC1(COc2cc([C@@H](Oc3nn(C)c4nnc(-c5c[nH]c(=O)[nH]c5=O)cc34)C(F)F)ccn2)CC1 [Example 41, 5-[3-[(1R)-2,2-difluoro-1-[2-[(1-methoxycyclopropyl)methoxy]-4-pyridyl]ethoxy]-1-methyl-pyrazolo[3,4-c]pyridazin-5-yl]-1H-pyrimidine-2,4-dione]	–	0.73 nM
Cn1nc(O[C@H](c2ccc3c(c2)N(CC(F)(F)F)CCO3)C(F)F)c2cc(-c3c[nH]c(=O)[nH]c3=O)nnc21 [Example 25, 5-[3-[(1R)-2,2-difluoro-1-[4-(2,2,2-trifluoroethyl)-2,3-dihydro-1,4-benzoxazin-6-yl]ethoxy]-1-methyl-pyrazolo[3,4-c]pyridazin-5-yl]-1H-pyrimidine-2,4-dione]	–	1.29 nM
Cn1nc(O[C@H](c2cc(OCC3CC3(F)F)ccn2)C(F)F)c2cc(-c3c[nH]c(=O)[nH]c3=O)nnc21 (stereo partly drawn) [Example 18, 5-[1-methyl-3-[(1R)-1-[4-[(2,2-difluorocyclopropyl)methoxy]-2-pyridyl]-2,2-difluoro-ethoxy]pyrazolo[3,4-c]pyridazin-5-yl]-1H-pyrimidine-2,4-dione]	–	0.54 nM
Cn1nc(O[C@H](c2cc(OCC3(F)CC3)ccn2)C(F)F)c2cc(-c3c[nH]c(=O)[nH]c3=O)nnc21 [Example 19, 5-[3-[(1R)-2,2-difluoro-1-[4-[(1-fluorocyclopropyl)methoxy]-2-pyridyl]ethoxy]-1-methyl-pyrazolo[3,4-c]pyridazin-5-yl]-1H-pyrimidine-2,4-dione]	–	0.59 nM
[2H]C([2H])(Oc1ccnc([C@@H](Oc2nn(C)c3nnc(-c4c[nH]c(=O)[nH]c4=O)cc23)C(F)F)c1)C(F)(F)F [Example 5, 5-[3-[(1R)-1-[4-(1,1-dideuterio-2,2,2-trifluoro-ethoxy)-2-pyridyl]-2,2-difluoro-ethoxy]-1-methyl-pyrazolo[3,4-c]pyridazin-5-yl]-1H-pyrimidine-2,4-dione]	–	0.52 nM
Cn1nc(O[C@H](c2cc(OCC3(C#N)CC3)ccn2)C(F)F)c2cc(-c3c[nH]c(=O)[nH]c3=O)nnc21 [Example 22, 1-[[2-[(1R)-1-[5-(2,4-dioxo-1H-pyrimidin-5-yl)-1-methyl-pyrazolo[3,4-c]pyridazin-3-yl]oxy-2,2-difluoro-ethyl]-4-pyridyl]oxymethyl]cyclopropanecarbonitrile]	–	0.43 nM
Cn1nc(O[C@H](c2ccnc(CN3CCC(F)(F)C3)c2)C(F)F)c2cc(-c3c[nH]c(=O)[nH]c3=O)nnc21 [Example 33, 5-[3-[(1R)-1-[2-[(3,3-difluoropyrrolidin-1-yl)methyl]-4-pyridyl]-2,2-difluoro-ethoxy]-1-methyl-pyrazolo[3,4-c]pyridazin-5-yl]-1H-pyrimidine-2,4-dione]	–	0.63 nM
[2H]C([2H])([2H])n1nc(O[C@H](c2cc(OCC(F)(F)F)ccn2)C(F)F)c2cc(-c3c[nH]c(=O)[nH]c3=O)nnc21 [Example 6, 5-[3-[(1R)-2,2-difluoro-1-[4-(2,2,2-trifluoroethoxy)-2-pyridyl]ethoxy]-1-(trideuteriomethyl)pyrazolo[3,4-c]pyridazin-5-yl]-1H-pyrimidine-2,4-dione]	–	0.43 nM
